From patent US20130109734A1 (Metabolex, Inc., priority 2010, published 2013) come the findings set out here.

The test deals with T1, human GPR120 (Homo sapiens, UniProt Q5NUL3).
T1 construct: host or cells: HEK293 cells co-expressing Gqi5
T1 sequence (Q5NUL3 1-361): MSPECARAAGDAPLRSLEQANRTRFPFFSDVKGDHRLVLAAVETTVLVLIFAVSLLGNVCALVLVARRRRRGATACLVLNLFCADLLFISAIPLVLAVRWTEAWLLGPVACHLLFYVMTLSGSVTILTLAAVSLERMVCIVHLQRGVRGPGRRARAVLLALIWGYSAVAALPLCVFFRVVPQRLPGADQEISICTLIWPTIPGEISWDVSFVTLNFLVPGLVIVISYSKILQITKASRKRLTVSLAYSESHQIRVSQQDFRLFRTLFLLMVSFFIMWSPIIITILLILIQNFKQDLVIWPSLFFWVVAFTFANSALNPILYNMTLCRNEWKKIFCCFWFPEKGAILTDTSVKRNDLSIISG
The experiment in a line: Intracellular Ca2+ assay in human GPR120 stable cell line (HEK293 co-expressing Gqi5), Flexstation. The class given is cell-based. The note with it: human GPR120 cells, Ca2+ fluorescence; for % Activity (GW9508 Reference Compound): % activity at 5 μM compared to the maximal activity of GW9508 at 6.7 μM (=100%). On the procedure: Human GPR120 stable cell line was purchased from Multispan Inc (26219 Eden Landing Road, Hayward, Calif. 94545). This GPR120 cell line was generated in HEK293 cells co-expressing Gqi5. In this cell line, the Flag epitope tag (DYKDDDDK) was fused to the amino terminus of human GPR120 protein.
The concentration of intracellular Ca^2+ was measured as described below. Human GPR120 cells were plated in 96 well plates (Poly-D-Lysine coated black/clear Plate, Greiner Bio-One) at 70,000 cells per well and cultured overnight in conditions of 37° C. and 5% CO2. A Ca^2+assay dye stock solution was prepared by adding 10 mL of assay buffer (HBSS/20 mM HEPES, pH 7.4) to FLIPR Calcium 4 Assay Bulk Kit (Molecular Devices). The 10 mL of Ca^2+ assay dye solution was prepared by further diluting 0.5 mL of Ca^2+ assay dye stock solution with 10 mL of assay buffer. The medium of the cells was removed and immediately 100 μL of the Ca^2+ assay dye solution was dispensed into each well followed by incubation at 37° C. and 5% CO2 for 50 minutes to incorporate the Ca^2+ dye into the cells. The cell plate was then placed in the Flexstation (Molecular Devices) for 20 minutes at 37° C. Compounds were dissolved in 100% DMSO and diluted to desired concentrations with assay buffer and placed in the Flexstation simultaneously with the cell plate for 20 minute incubation at 37° C. prior to reading. Fluorescence intensity was measured immediately following compound addition (25 μL/well) on the Flexstation at an excitation wavelength of 485 nm and an emission wavelength of 525 with 515 nm auto cutoff. The resulting increase in fluorescence intensities corresponds to increases in intracellular Ca^2+ levels.
Compounds were dissolved in 100% DMSO to a concentration of 20 mM to provide stock solutions. To determine activity against human GPR120, compounds were added with human GPR120 stably expressing cells (described above), at eight desired concentrations ranging from 0.00001 to 20 μM, in 96 well plates and fluorescence intensities were measured for 90 seconds with 2-second intervals. An EC50 value (concentration of the GPR120 agonist where 50% of the agonist's maximal activity is observed) was calculated using the changes (Max−Min) of fluorescence intensity.
To determine percent activity for a tested compound, the fluorescence intensity value obtained at a particular concentration were compared to the maximal fluorescence intensity value obtained for reference compound GW9508 (4-[[(3-phenoxyphenyl)methyl]amino]benzene propanoic acid; British Journal of Pharmacology 2006 148, 619-628) or the compound of Example 25. When GW9508 was used as the reference compound, the maximal activity of GW9508 at 6.7 μM was designated as 100% activity. When the compound of Example 25 was used as the reference compound, the maximal activity of the compound of Example 25 at 2.5 μM was designated as 100% activity. Typically, the GW9508 activity reached a maximum at a concentration of approximately 6.7 μM and typically the compound of Example 25 reached a maximum activity at approximately 2.5 μM.

Consider “4-[[(3-phenoxyphenyl)methyl]amino]benzene propanoic acid [GW9508, reference compound]”, for which, where the note is “reference compounds, typical value”, the “concentration at which activity reached a maximum” value is reported as “approximately 6.7 μM”.

Regarding `CC1(C)Cc2cc(Cl)cc(COc3c(F)cc(C4CC4C(=O)O)cc3F)c2O1` (racemic) [Example 35, 2-(4-((5-chloro-2,2-dimethyl-2,3-dihydrobenzofuran-7-yl)methoxy)-3,5-difluorophenyl)cyclopropanecarboxylic acid], the “% Activity (GW9508 Reference Compound)” value was determined as 60.11%.

Take `CC1(C)Cc2cc(F)cc(COc3c(F)cc(CC4CC4C(=O)O)cc3F)c2O1` (racemic) [Example 184, 2-(3,5-difluoro-4-((5-fluoro-2,2-dimethyl-2,3-dihydrobenzofuran-7-yl)methoxy)benzyl)cyclopropanecarboxylic acid]: the “% Activity (GW9508 Reference Compound)” value came out at 97.04%.

As to `CC1(C)Cc2cc(F)cc(COc3ccc(C4CC4C(=O)O)cc3)c2O1` (single isomer, unassigned) [Example 131A, 2-(4-((5-fluoro-2,2-dimethyl-2,3-dihydrobenzofuran-7-yl)methoxy)phenyl)cyclopropanecarboxylic acid], the “% Activity (GW9508 Reference Compound)” value is given as 103.75%.

On to `CC1(C)Cc2cc(F)cc(COc3ccc(C4CC4C(=O)O)cc3)c2O1` (single isomer, unassigned) [Example 131B, 2-(4-((5-fluoro-2,2-dimethyl-2,3-dihydrobenzofuran-7-yl)methoxy)phenyl)cyclopropanecarboxylic acid], for which the “% Activity (GW9508 Reference Compound)” value turned out to be 105.8%.

For `CC1(C)Cc2cc(F)cc(COc3c(F)cc(CC4CC4C(=O)O)cc3F)c2O1` (single isomer, unassigned) [Example 184A, 2-(3,5-difluoro-4-((5-fluoro-2,2-dimethyl-2,3-dihydrobenzofuran-7-yl)methoxy)benzyl)cyclopropanecarboxylic acid], the “% Activity (GW9508 Reference Compound)” value is listed as 95.58%.

`CC1(C)Cc2cc(F)cc(COc3c(F)cc(CC4CC4C(=O)O)cc3F)c2O1` (single isomer, unassigned) [Example 184B, 2-(3,5-difluoro-4-((5-fluoro-2,2-dimethyl-2,3-dihydrobenzofuran-7-yl)methoxy)benzyl)cyclopropanecarboxylic acid]: the “% Activity (GW9508 Reference Compound)” value came out at 130.66%.

Consider `CC(Cc1cc(F)c(OCc2cccc3c2OC(C)(C)CC3)c(F)c1)C(=O)O` (stereo not drawn) [Example 2, 3-(4-((2,2-dimethylchroman-8-yl)methoxy)-3,5-difluorophenyl)-2-methylpropanoic acid], for which the “% Activity (GW9508 Reference Compound)” value amounted to 134.6745%.

Turning to `CC(Cc1cc(F)c(OCc2cccc3c2OCC3)c(F)c1)C(=O)O` (stereo not drawn) [Example 3, 3-(4-((2,3-dihydrobenzofuran-7-yl)methoxy)-3,5-difluorophenyl)-2-methylpropanoic acid], the “% Activity (GW9508 Reference Compound)” value is recorded as 123.7995%.

Take `Cc1cc(COc2ccc(CC(C)C(=O)O)cc2)c2c(c1)CC(C)(C)O2` (stereo not drawn) [Example 4, 2-methyl-3-(4-((2,2,5-trimethyl-2,3-dihydrobenzofuran-7-yl)methoxy)phenyl)propanoic acid]: the “% Activity (GW9508 Reference Compound)” value came to 110.8%.

`Cc1cc(COc2c(F)cc(CC(C)C(=O)O)cc2F)c2c(c1)CC(C)(C)O2` (stereo not drawn) [Example 5, 3-(3,5-difluoro-4-((2,2,5-trimethyl-2,3-dihydrobenzofuran-7-yl)methoxy)phenyl)-2-methylpropanoic acid]: the “% Activity (GW9508 Reference Compound)” value is reported as 149.2%.

As for `Cc1cc(CC(C)C(=O)O)ccc1OCc1cc(F)cc2c1OC(C)(C)C2` (stereo not drawn) [Example 6, 3-(4-((5-fluoro-2,2-dimethyl-2,3-dihydrobenzofuran-7-yl)methoxy)-3-methylphenyl)-2-methylpropanoic acid], the “% Activity (GW9508 Reference Compound)” value stood at 147.3%.

Take `COc1cc(CC(C)C(=O)O)ccc1OCc1cc(F)cc2c1OC(C)(C)C2` (stereo not drawn) [Example 7, 3-(4-((5-fluoro-2,2-dimethyl-2,3-dihydrobenzofuran-7-yl)methoxy)-3-methoxyphenyl)-2-methylpropanoic acid]: the “% Activity (GW9508 Reference Compound)” value is on record as 168.2%.

As for `CC(Cc1ccc(OCc2cc(F)cc3c2OC(C)(C)C3)c(F)c1)C(=O)O` (stereo not drawn) [Example 8, 3-(3-fluoro-4-((5-fluoro-2,2-dimethyl-2,3-dihydrobenzofuran-7-yl)methoxy)phenyl)-2-methylpropanoic acid], the “% Activity (GW9508 Reference Compound)” value is given as 135.3906%.

As to `CC(Cc1ccc(OCc2cc(Cl)cc3c2OC(C)(C)C3)c(C(F)(F)F)c1)C(=O)O` (stereo not drawn) [Example 9, 3-(4-((5-chloro-2,2-dimethyl-2,3-dihydrobenzofuran-7-yl)methoxy)-3-(trifluoromethyl)phenyl)-2-methylpropanoic acid], the “% Activity (GW9508 Reference Compound)” value was 112.8%.

On to `Cc1cc(CC(C)C(=O)O)ccc1OCc1cc(Cl)cc2c1OC(C)(C)C2` (stereo not drawn) [Example 11, 3-(4-((5-chloro-2,2-dimethyl-2,3-dihydrobenzofuran-7-yl)methoxy)-3-methylphenyl)-2-methylpropanoic acid], for which the “% Activity (GW9508 Reference Compound)” value is 124.2119%.

Regarding `CC(Cc1ccc(OCc2cc(Cl)cc3c2OC(C)(C)C3)c(Cl)c1)C(=O)O` (stereo not drawn) [Example 12, 3-(3-chloro-4-((5-chloro-2,2-dimethyl-2,3-dihydrobenzofuran-7-yl)methoxy)phenyl)-2-methylpropanoic acid], the “% Activity (GW9508 Reference Compound)” value is 116.1354%.

As to `CC(Cc1cc(Cl)c(OCc2cc(Cl)cc3c2OC(C)(C)C3)c(Cl)c1)C(=O)O` (stereo not drawn) [Example 14, 3-(3,5-dichloro-4-((5-chloro-2,2-dimethyl-2,3-dihydrobenzofuran-7-yl)methoxy)phenyl)-2-methylpropanoic acid], the “% Activity (GW9508 Reference Compound)” value came to 84.49%.

In the case of `COc1cc(CC(C)C(=O)O)ccc1OCc1cc(Cl)cc2c1OC(C)(C)C2` (stereo not drawn) [Example 15, 3-(4-((5-chloro-2,2-dimethyl-2,3-dihydrobenzofuran-7-yl)methoxy)-3-methoxyphenyl)-2-methylpropanoic acid], the “% Activity (GW9508 Reference Compound)” value was 109.2%.

`CC(Cc1ccc(OCc2cc(F)cc3c2OC(C)(C)C3)cc1)C(=O)O` (stereo not drawn) [Example 16, 3-(4-((5-fluoro-2,2-dimethyl-2,3-dihydrobenzofuran-7-yl)methoxy)phenyl)-2-methylpropanoic acid]: the “% Activity (GW9508 Reference Compound)” value is listed as 110.8294%.

For the molecule `CC(Cc1cc(F)c(OCc2cc(F)cc3c2OC(C)(C)C3)c(F)c1)C(=O)O` (stereo not drawn) [Example 18, 3-(3,5-difluoro-4-((5-fluoro-2,2-dimethyl-2,3-dihydrobenzofuran-7-yl)methoxy)phenyl)-2-methylpropanoic acid], the “% Activity (GW9508 Reference Compound)” value is given as 130.0714%.

As to `CC1(C)Cc2cc(F)cc(COc3c(F)cc(C4CC4C(=O)O)cc3F)c2O1` (stereo not drawn) [Example 19, 2-(3,5-difluoro-4-((5-fluoro-2,2-dimethyl-2,3-dihydrobenzofuran-7-yl)methoxy)phenyl)cyclopropanecarboxylic acid], the “% Activity (GW9508 Reference Compound)” value was 125.5%.

Consider `CC(Cc1cc(F)c(OCc2cccc3c2CC(C)(C)O3)c(F)c1)C(=O)O` (stereo not drawn) [Example 21, 3-(4-((2,2-dimethyl-2,3-dihydrobenzofuran-4-yl)methoxy)-3,5-difluorophenyl)-2-methylpropanoic acid], for which the “% Activity (GW9508 Reference Compound)” value was determined as 112.6%.

For `CC1(C)Cc2c(COc3c(F)cc(C4CC4C(=O)O)cc3F)cccc2O1` (stereo not drawn) [Example 22, 2-(4-((2,2-dimethyl-2,3-dihydrobenzofuran-4-yl)methoxy)-3,5-difluorophenyl)cyclopropanecarboxylic acid], the “% Activity (GW9508 Reference Compound)” value was determined as 126%.
